Laboratory results as given in patent US6504030B1, “Polymorphic form of clopidogrel hydrogen sulphate” (Sanofi-Synthelabo, priority 1998, dated 2003).
Structures can show the parent of a compound that is named as a salt.

Experiments:
platelet aggregation = conditions: enantiomers compared, per EP 281459; cited from earlier work
[1] = compared with dextrorotatory isomer, per EP 281459; cited from earlier work
[2] = compared with Form 1

For `COC(=O)[C@H](c1ccccc1Cl)N1CCc2sccc2C1` [clopidogrel hydrogen sulfate, hydrogen sulfate of methyl (+)-(S)-α-(2-chlorophenyl)-4,5,6,7-tetrahydrothieno[3,2-c]pyridine-5-acetate], the “platelet aggregation inhibiting activity” value (platelet aggregation) is listed as “excellent platelet aggregation inhibiting activity”.

In the case of `COC(=O)C(c1ccccc1Cl)N1CCc2sccc2C1` (single isomer, unassigned) [levorotatory isomer], the “platelet aggregation inhibiting activity” value (platelet aggregation) is given as “less active” and the tolerance [1] is given as “less well tolerated”.

In the case of `COC(=O)[C@H](c1ccccc1Cl)N1CCc2sccc2C1.O=S(=O)(O)O` [Form 2, hydrogen sulfate of methyl (+)-(S)-α-(2-chlorophenyl)-4,5,6,7-tetrahydrothieno[3,2-c]pyridine-5-acetate], the “compactness of bulk solid” value [2] is reported as “more compact” and the “electrostatic behaviour of bulk solid” value [2] is reported as “much less electrostatic than Form 1”.
